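All cell lines were grown in 96-well plates and treated with compound for 48 hours. TGI is the concentration that stops growth completely.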
Experiments:
Experiment in all cases: NCI tumour cell line growth inhibition, 48 h
[1] = system: UACC-62 melanoma
[2] = system: SK-MEL-2 melanoma
[3] = system: 786-0 renal
[4] = system: IGROV1 ovarian
[5] = system: SN12C renal
[6] = system: ACHN renal
[7] = system: CCRF-CEM leukemia
[8] = system: OVCAR-3 ovarian
[9] = system: NCI/ADR-RES ovarian
[10] = system: HCC-2998 colon
[11] = system: UACC-257 melanoma
[12] = system: SK-MEL-28 melanoma
[13] = system: HL-60(TB) leukemia
[14] = system: HCT-116 colon
[15] = system: SK-MEL-5 melanoma
[16] = system: BT-549 breast
[17] = system: PC-3 prostate
[18] = system: LOX IMVI melanoma
[19] = system: A549 NSCLC
[20] = system: K-562 leukemia
[21] = system: HOP-92 NSCLC
[22] = system: CAKI-1 renal
[23] = system: HCT-15 colon
[24] = system: HT29 colon
[25] = system: MDA-MB-435
[26] = system: SF-539 CNS
[27] = system: MDA-MB-231 breast
[28] = system: COLO 205 colon
[29] = system: SF-295 CNS
[30] = system: OVCAR-5 ovarian
[31] = system: KM12 colon
[32] = system: NCI-H460 lung
[33] = system: OVCAR-4 ovarian
[34] = system: UO-31 renal
[35] = system: SW-620 colon
[36] = system: MALME-3M melanoma
[37] = system: TK-10 renal
[38] = system: MDA-N
[39] = system: U251 CNS
[40] = system: NCI-H23 lung
[41] = system: EKVX NSCLC
[42] = system: SNB-19 CNS
[43] = system: SK-OV-3 ovarian
[44] = system: MCF7 breast
[45] = system: DU-145 prostate
[46] = system: SF-268 CNS
[47] = system: OVCAR-8 ovarian
[48] = system: MOLT-4 leukemia
[49] = system: NCI-H522 lung
[50] = system: HOP-62 NSCLC
[51] = system: M14 melanoma
[52] = system: T-47D breast
[53] = system: NCI-H226 lung
[54] = system: HS 578T breast
[55] = system: SR leukemia
[56] = system: RPMI-8226 leukemia

For `Clc1ccc(Cc2nc3cc(Cl)ccc3o2)cc1`, the TGI [1] was over 100 µM, the TGI [2] was 35.4 µM and the TGI [3] was over 100 µM. The TGI [4] was over 100 µM, the TGI [5] was over 100 µM and the TGI [6] was over 100 µM. It also gave a TGI [7] of 92.3 µM, a TGI [8] of 70.9 µM and a TGI [9] of over 100 µM. For the same molecule, the TGI [10] was 53.2 µM, the TGI [11] was 92.2 µM and the TGI [12] was over 100 µM. For the same molecule, the TGI [13] was over 100 µM, the TGI [14] was over 100 µM and the TGI [15] was 33.1 µM. For the same molecule, the TGI [16] was over 100 µM, the TGI [17] was over 100 µM and the TGI [18] was over 100 µM. For the same molecule, the TGI [19] was over 100 µM, the TGI [20] was over 100 µM and the TGI [21] was over 100 µM. For the same molecule, the TGI [22] was over 100 µM, the TGI [23] was over 100 µM and the TGI [24] was over 100 µM. It also gave a TGI [25] of 95.6 µM, a TGI [26] of over 100 µM and a TGI [27] of over 100 µM. For the same molecule, the TGI [28] was 87.4 µM, the TGI [29] was 71.8 µM and the TGI [30] was over 100 µM. The TGI [31] was over 100 µM, the TGI [32] was over 100 µM and the TGI [33] was over 100 µM. It also gave a TGI [34] of over 100 µM, a TGI [35] of over 100 µM and a TGI [36] of over 100 µM. It also gave a TGI [37] of over 100 µM, a TGI [38] of over 100 µM and a TGI [39] of 91.2 µM. It also gave a TGI [40] of over 100 µM, a TGI [41] of 80.9 µM and a TGI [42] of over 100 µM. It also gave a TGI [43] of 68.7 µM, a TGI [44] of over 100 µM and a TGI [45] of over 100 µM. The TGI [46] was over 100 µM, the TGI [47] was over 100 µM and the TGI [48] was over 100 µM. For the same molecule, the TGI [49] was 97 µM, the TGI [50] was over 100 µM and the TGI [51] was over 100 µM. The TGI [52] was 97.9 µM, the TGI [53] was over 100 µM and the TGI [54] was over 100 µM. For the same molecule, the TGI [55] was over 100 µM and the TGI [56] was over 100 µM.

Source: PubChem BioAssay (NCI)
